These results are taken from patent publication US6897211B2, “Thienodibenzoazulene compounds as tumor necrosis factor inhibitors” (Pliva-Istrazivacki Institut d.o.o., priority 2000, dated 2005).

The subject of the first data set is secretion of TNF-α and IL-1. In words: investigated tests: TNF-α and IL-1 secretion in human PBMC and mouse peritoneal macrophages in vitro, LPS-induced TNF-α/IL-1 secretion in mice, writhing test, LPS-induced shock in mice. As to conditions: tests not specified per compound; active = IC-50 20 μM or lower (human PBMC), 10 μM or lower (mouse macrophages), 30% or higher TNF-α inhibition at 10 mg/kg p.o., analgetic activity same or better than acetyl salicylic acid, 40% or better survival at 30 mg/kg. (In general: An intraperitoneal irritant provokes the stretching counted in writhing tests.)
Turning to `Cl.Fc1ccc2c(c1)-c1sc(COCCN3CCCCC3)cc1-c1ccccc1O2` [Example 19, 1-[2-(11-fluoro-8-oxa-1-thia-dibenzo[e,h]azulene-2-ylmethoxy)-ethyl]-piperidine hydrochloride], the “activity in at least two investigated tests” value (from here on “activity”) was “activity in at least two investigated tests”.
With `Cl.c1ccc2c(c1)Oc1ccccc1-c1sc(COCCN3CCCC3)cc1-2` [Example 5, 1-[2-(8-oxa-1-thia-dibenzo[e,h]azulene-2-ylmethoxy)-ethyl]-pyrrolidine hydrochloride], the “activity” value is on record as “activity in at least two investigated tests”.
For `CN(C)CCCOCc1cc2c(s1)-c1ccccc1Oc1ccccc1-2.Cl` [Example 1, Dimethyl-[3-(8-oxa-1-thia-dibenzo[e,h]azulene-2-ylmethoxy)-propyl]-amine hydrochloride], the “activity” value was “activity in at least two investigated tests”.
Turning to `CN(C)CCCOCc1cc2c(s1)-c1ccccc1Sc1ccccc1-2.Cl` [Example 21, [3-(1,8-dithia-dibenzo[e,h]azulene-2-ylmethoxy)-propyl]-dimethylamine hydrochloride], the “activity” value is “activity in at least two investigated tests”.

Test system in another data set: not given
Experiment: not given
Settings: not given
In general, melting point refers to the temperature of the solid-liquid transition. `CN(C)CCCOCc1cc2c(s1)-c1ccccc1Oc1ccccc1-2.Cl` [Example 1, Dimethyl-[3-(8-oxa-1-thia-dibenzo[e,h]azulene-2-ylmethoxy)-propyl]-amine hydrochloride] showed a melting point of 120 to 122 °C.
Regarding `CN(C)CCOCc1cc2c(s1)-c1cccc(Cl)c1Oc1ccccc1-2` [Example 7, [2-(9-chloro-8-oxa-1-thia-dibenzo[e,h]azulene-2-ylmethoxy)-ethyl]-dimethyl-amine], the melting point came out at 122 °C.
`CN(C)CCCOCc1cc2c(s1)-c1cccc(Cl)c1Oc1ccccc1-2` [Example 6, [3-(9-chloro-8-oxa-1-thia-dibenzo[e,h]azulene-2-ylmethoxy)-propyl]-dimethyl-amine]: the melting point lay in the range of 124 to 128 °C.
The same measure, in the same setting: as for `CN(C)CCOCc1cc2c(s1)-c1ccccc1Oc1ccccc1-2.Cl`, the figure is 131 to 133 °C; as for `Cl.c1ccc2c(c1)Oc1ccccc1-c1sc(COCCN3CCOCC3)cc1-2`, 157 to 158 °C.
`Cl.c1ccc2c(c1)Oc1ccccc1-c1sc(COCCN3CCCCC3)cc1-2` displayed a melting point of 117 to 123 °C.
